According to ChEMBL document CHEMBL1152938, “Synthesis and structure-activity relationships of C-glycosylated oxadiazoles as inhibitors of glycogen phosphorylase” (Bioorg Med Chem, 2009):
Active and inactive are the calls of the source. The rule behind the calls is not given here.

biological target: T1, Glycogen phosphorylase, muscle form (Oryctolagus cuniculus) (UniProt P00489); experiment: Inhibition of rabbit muscle glycogen phosphorylase b at 625 uM
T1 sequence (whole entry): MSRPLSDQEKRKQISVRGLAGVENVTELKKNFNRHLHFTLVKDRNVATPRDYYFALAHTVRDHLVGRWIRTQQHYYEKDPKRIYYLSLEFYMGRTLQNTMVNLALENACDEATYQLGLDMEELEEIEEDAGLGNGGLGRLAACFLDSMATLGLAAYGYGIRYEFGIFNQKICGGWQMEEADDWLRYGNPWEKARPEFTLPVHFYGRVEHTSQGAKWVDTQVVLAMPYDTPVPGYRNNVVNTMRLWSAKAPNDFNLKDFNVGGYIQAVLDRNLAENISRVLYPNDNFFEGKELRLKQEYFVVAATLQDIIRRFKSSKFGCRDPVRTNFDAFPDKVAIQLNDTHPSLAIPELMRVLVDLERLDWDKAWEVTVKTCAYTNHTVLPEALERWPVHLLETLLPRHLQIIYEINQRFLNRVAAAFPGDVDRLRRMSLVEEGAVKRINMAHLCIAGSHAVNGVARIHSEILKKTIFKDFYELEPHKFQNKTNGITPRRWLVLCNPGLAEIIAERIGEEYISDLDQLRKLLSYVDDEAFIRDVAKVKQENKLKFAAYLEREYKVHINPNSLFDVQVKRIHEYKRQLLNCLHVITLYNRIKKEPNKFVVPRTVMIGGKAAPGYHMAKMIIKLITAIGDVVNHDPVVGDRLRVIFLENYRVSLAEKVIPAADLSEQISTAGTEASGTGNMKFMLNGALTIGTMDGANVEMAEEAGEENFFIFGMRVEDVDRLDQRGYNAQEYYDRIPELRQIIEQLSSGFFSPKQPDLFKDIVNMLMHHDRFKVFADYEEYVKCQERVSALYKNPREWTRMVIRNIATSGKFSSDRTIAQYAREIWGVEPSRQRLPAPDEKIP

SMILES | inhibition
OC[C@H]1O[C@@H](c2nc(-c3ccc(OCc4ccccc4)cc3)no2)[C@H](O)[C@@H](O)[C@@H]1O | inactive
O=[N+]([O-])c1ccc(-c2nc([C@@H]3O[C@H](CO)[C@@H](O)[C@H](O)[C@H]3O)no2)cc1 | inactive
Nc1ccc(-c2noc([C@@H]3O[C@H](CO)[C@@H](O)[C@H](O)[C@H]3O)n2)cc1 | 20%
OC[C@H]1O[C@@H](c2noc(-c3cccc4ccccc34)n2)[C@H](O)[C@@H](O)[C@@H]1O | inactive
Cc1nc([C@@H]2O[C@H](CO)[C@@H](O)[C@H](O)[C@H]2O)no1 | inactive
OC[C@H]1O[C@@H](c2noc(-c3ccccc3)n2)[C@H](O)[C@@H](O)[C@@H]1O | 10%

Now from value to molecule:

inhibition | SMILES
inactive | Nc1ccc(-c2nnc([C@@H]3O[C@H](CO)[C@@H](O)[C@H](O)[C@H]3O)o2)cc1
10% | OC[C@H]1O[C@@H](c2nnc(-c3cccc4ccccc34)o2)[C@H](O)[C@@H](O)[C@@H]1O
inactive | OC[C@H]1O[C@@H](c2nnc(-c3ccc(O)cc3)o2)[C@H](O)[C@@H](O)[C@@H]1O
10% | OC[C@H]1O[C@@H](c2nnc(-c3ccccc3)o2)[C@H](O)[C@@H](O)[C@@H]1O
10% | OC[C@H]1O[C@@H](c2nnc(-c3ccc4ccccc4c3)o2)[C@H](O)[C@@H](O)[C@@H]1O
inactive | COc1ccc(-c2nnc([C@@H]3O[C@H](CO)[C@@H](O)[C@H](O)[C@H]3O)o2)cc1
inactive | Cc1ccc(-c2nnc([C@@H]3O[C@H](CO)[C@@H](O)[C@H](O)[C@H]3O)o2)cc1
inactive | O=[N+]([O-])c1ccc(-c2nnc([C@@H]3O[C@H](CO)[C@@H](O)[C@H](O)[C@H]3O)o2)cc1

biological target: T2, Glycogen phosphorylase, muscle form (Oryctolagus cuniculus, UniProt P00489)
T2 sequence (P00489 whole entry): T1 sequence (whole entry)

IC50 | SMILES | Ki
– | OC[C@H]1O[C@@H](c2noc(-c3ccc4ccccc4c3)n2)[C@H](O)[C@@H](O)[C@@H]1O | 38 µM
– | Cc1ccc(C(=O)NC(=O)N[C@@H]2O[C@H](CO)[C@@H](O)[C@H](O)[C@H]2O)cc1 | 2.3 µM
4500 µM | Cc1ccc(C(=O)N[C@@H]2O[C@H](CO)[C@@H](O)[C@H](O)[C@H]2O)cc1 | –
– | OC[C@H]1O[C@@H](c2nc3ccccc3s2)[C@H](O)[C@@H](O)[C@@H]1O | 76 µM
> 625 µM | OC[C@H]1O[C@@H](c2nc(-c3ccc4c(c3)OCO4)no2)[C@H](O)[C@@H](O)[C@@H]1O | –
– | O=C(NC(=O)c1cccc2ccccc12)N[C@@H]1O[C@H](CO)[C@@H](O)[C@H](O)[C@H]1O | 15 µM
– | Nc1ccc(C(=O)NC(=O)N[C@@H]2O[C@H](CO)[C@@H](O)[C@H](O)[C@H]2O)cc1 | 6 µM
– | OC[C@H]1O[C@@H](c2nc(-c3ccc(O)cc3)no2)[C@H](O)[C@@H](O)[C@@H]1O | 19.4 µM
– | OC[C@H]1O[C@@H](c2nc(-c3ccc4ccccc4c3)no2)[C@H](O)[C@@H](O)[C@@H]1O | 2.4 µM
– | Cc1nnc(C2O[C@H](CO)[C@@H](O)[C@H](O)[C@H]2O)o1 (single isomer, unassigned) | 145 µM
650 µM | O=[N+]([O-])c1ccc(-c2noc([C@@H]3O[C@H](CO)[C@@H](O)[C@H](O)[C@H]3O)n2)cc1 | –
350 µM | Cc1ccc(-c2nc([C@@H]3O[C@H](CO)[C@@H](O)[C@H](O)[C@H]3O)no2)cc1 | –
– | Cc1ccc(-c2noc([C@@H]3O[C@H](CO)[C@@H](O)[C@H](O)[C@H]3O)n2)cc1 | 8.8 µM
– | O=C(NC(=O)c1ccc(O)cc1)N[C@@H]1O[C@H](CO)[C@@H](O)[C@H](O)[C@H]1O | 6.3 µM
– | O=C(NC(=O)c1ccc([N+](=O)[O-])cc1)N[C@@H]1O[C@H](CO)[C@@H](O)[C@H](O)[C@H]1O | 3.3 µM
– | OC[C@H]1O[C@@H](c2nc(-c3cccc4ccccc34)no2)[C@H](O)[C@@H](O)[C@@H]1O | 19 µM
550 µM | COc1ccc(-c2nc([C@@H]3O[C@H](CO)[C@@H](O)[C@H](O)[C@H]3O)no2)cc1 | –
– | OC[C@H]1O[C@@H](c2nc(-c3ccccc3)no2)[C@H](O)[C@@H](O)[C@@H]1O | 64 µM
– | COc1ccc(-c2noc([C@@H]3O[C@H](CO)[C@@H](O)[C@H](O)[C@H]3O)n2)cc1 | 20.4 µM
